Patent US9113629B2, “4-amino-6-(4-substituted-phenyl)-picolinates and 6-amino-2-(4-substituted-phenyl)-pyrimidine-4-carboxylates and their use as herbicides” (DOW AGROSCIENCES LLC, priority 2013, dated 2015)
Read-outs that look alike come from different tables or passages of the source.

What was measured:
[1] = test system: HORSS: barley, including spring and winter (Hordeum vulgare); experiment: Post-emergent Test III, herbicidal activity in wheat and barley; assay type: in vivo; details: for pest or weed control at 35 g/ha / pest or weed control at 70 g/ha / pest or weed control at 140 g/ha: Hordeum vulgare, post-emergence, 504 h, read-out: Visual Growth Reduction (%) 21 Days After Application HORSS; for pest or weed control at 35 g/ha: 35 g ai/ha; for pest or weed control at 70 g/ha: 70 g ai/ha; for pest or weed control at 140 g/ha: 140 g ai/ha; for GR20 HORSS: probit analysis
Procedure, shortened: (§1)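 Plants at the second to third true-leaf stage, grown in a greenhouse at about 18/17 °C with a 14 h photoperiod, were sprayed post-emergence at 187 L/ha with the high rate and ½× to 1/16× serial dilutions in an acetone/DMSO/crop-oil/surfactant carrier. Injury was rated visually at 21 d on a 0–100% scale, and GR20–GR90 were derived by probit analysis.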

[2] = test system: KCHSC: kochia (Kochia scoparia); experiment: as above; assay type: in vivo; details: for pest or weed control at 35 g/ha / pest or weed control at 70 g/ha / pest or weed control at 140 g/ha: Bassia scoparia, post-emergence, 504 h, read-out: Visual Growth Reduction (%) 21 Days After Application KCHSC; for pest or weed control at 35 g/ha: 35 g ai/ha; for pest or weed control at 70 g/ha: 70 g ai/ha; for pest or weed control at 140 g/ha: 140 g ai/ha; for GR50 KCHSC / GR80 KCHSC: probit analysis
Procedure, shortened: as §1

[3] = as above; assay type: in vivo, Lolium multiflorum, Lolium rigidum; details: Lolium multiflorum, post-emergence, 504 h, read-out: Visual Growth Reduction (%) 21 Days After Application LOLSS; for pest or weed control at 35 g/ha: 35 g ai/ha; for pest or weed control at 70 g/ha: 70 g ai/ha; for pest or weed control at 140 g/ha: 140 g ai/ha
Procedure, shortened: as §1

[4] = test system: TRZSS: wheat, including spring and winter (Triticum aestivum); experiment: as above; assay type: in vivo; details: for pest or weed control at 35 g/ha / pest or weed control at 70 g/ha / pest or weed control at 140 g/ha: Triticum aestivum, post-emergence, 504 h, read-out: Visual Growth Reduction (%) 21 Days After Application TRZSS; for pest or weed control at 35 g/ha: 35 g ai/ha; for pest or weed control at 70 g/ha: 70 g ai/ha; for pest or weed control at 140 g/ha: 140 g ai/ha; for GR20 TRZSS: probit analysis
Procedure, shortened: as §1

[5] = test system: SETVI: green foxtail (Setaria viridis); experiment: as above; assay type: in vivo; details: for pest or weed control at 35 g/ha / pest or weed control at 70 g/ha / pest or weed control at 140 g/ha: Setaria viridis, post-emergence, 504 h, read-out: Visual Growth Reduction (%) 21 Days After Application SETVI; for pest or weed control at 35 g/ha: 35 g ai/ha; for pest or weed control at 70 g/ha: 70 g ai/ha; for pest or weed control at 140 g/ha: 140 g ai/ha; for GR50 SETVI / GR80 SETVI: probit analysis
Procedure, shortened: as §1

[6] = test system: MATSS: scented mayweed (Matricaria chamomilla), pineappleweed (Matricaria matricarioides); experiment: as above; assay type: in vivo
Procedure, shortened: as §1

[7] = test system: VERPE: bird's-eye speedwell (veronica persica); experiment: as above; assay type: in vivo
Procedure, shortened: as §1

[8] = test system: APESV: bentgrass (Apera spica-venti); experiment: as above; assay type: in vivo; details: for pest or weed control at 35 g/ha / pest or weed control at 70 g/ha / pest or weed control at 140 g/ha: Apera spica-venti, post-emergence, 504 h, read-out: Visual Growth Reduction (%) 21 Days After Application APESV; for pest or weed control at 35 g/ha: 35 g ai/ha; for pest or weed control at 70 g/ha: 70 g ai/ha; for pest or weed control at 140 g/ha: 140 g ai/ha; for GR50 APESV / GR80 APESV: probit analysis
Procedure, shortened: as §1

[9] = dose for growth reduction of 20 percent, 21 days after application, crop
[10] = dose for growth reduction of 50 percent, 21 days after application
[11] = dose for growth reduction of 80 percent, 21 days after application
[12] = probit analysis, dose for growth reduction of 50 percent, 21 days after application
[13] = probit analysis, dose for growth reduction of 80 percent, 21 days after application
[14] = Table 9, dose for 20 percent growth reduction, 21 d
[15] = Table 9, dose for 50 percent growth reduction, 21 d
[16] = Table 9, dose for 80 percent growth reduction, 21 d

SMILES: Nc1cc(-c2ccc(Br)c(F)c2F)nc(C(=O)O)c1Cl [Compound 91]
- pest or weed control at 35 g/ha [1]: 75 to 84%
- pest or weed control at 70 g/ha [1]: 75 to 84%
- pest or weed control at 140 g/ha [1]: 85 to 94%
- GR20 HORSS [1, 9]: 1 g ai/ha
- pest or weed control at 35 g/ha [2]: 75 to 84%
- pest or weed control at 70 g/ha [2]: 85 to 94%
- pest or weed control at 140 g/ha [2]: 85 to 94%
- GR50 KCHSC [2, 10]: 2 g ai/ha
- GR80 KCHSC [2, 11]: 47 g ai/ha
- pest or weed control at 35 g/ha [3]: 0 to 29%
- pest or weed control at 70 g/ha [3]: 0 to 29%
- pest or weed control at 140 g/ha [3]: 0 to 29%
- pest or weed control at 35 g/ha [4]: 75 to 84%
- pest or weed control at 70 g/ha [4]: 85 to 94%
- pest or weed control at 140 g/ha [4]: 85 to 94%
- GR20 TRZSS [4, 9]: 1 g ai/ha
- pest or weed control at 35 g/ha [5]: 60 to 74%
- pest or weed control at 70 g/ha [5]: 75 to 84%
- pest or weed control at 140 g/ha [5]: 75 to 84%
- GR50 SETVI [5, 10]: 6 g ai/ha
- GR80 SETVI [5, 11]: 105 g ai/ha
- pest or weed control at 35 g/ha ([6]; Matricaria chamomilla, post-emergence, 504 h, 35 g ai/ha, read-out: Visual Growth Reduction (%) 21 Days After Application MATSS): 60 to 74%
- pest or weed control at 70 g/ha ([6]; Matricaria chamomilla, post-emergence, 504 h, 70 g ai/ha, read-out: Visual Growth Reduction (%) 21 Days After Application MATSS): 75 to 84%
- pest or weed control at 140 g/ha ([6]; Matricaria chamomilla, post-emergence, 504 h, 140 g ai/ha, read-out: Visual Growth Reduction (%) 21 Days After Application MATSS): 85 to 94%
- GR50 MATSS [6, 12]: 11 g ai/ha
- GR80 MATSS [6, 13]: 75 g ai/ha
- pest or weed control at 35 g/ha ([7]; Veronica persica, post-emergence, 504 h, 35 g ai/ha, read-out: Visual Growth Reduction (%) 21 Days After Application VERPE): 30 to 44%
- pest or weed control at 70 g/ha ([7]; Veronica persica, post-emergence, 504 h, 70 g ai/ha, read-out: Visual Growth Reduction (%) 21 Days After Application VERPE): 30 to 44%
- pest or weed control at 140 g/ha ([7]; Veronica persica, post-emergence, 504 h, 140 g ai/ha, read-out: Visual Growth Reduction (%) 21 Days After Application VERPE): 45 to 59%
- GR50 VERPE [7, 12]: 123 g ai/ha
- GR80 VERPE [7, 13]: >140 g ai/ha
- pest or weed control at 35 g/ha [8]: 45 to 59%
- pest or weed control at 70 g/ha [8]: 45 to 59%
- pest or weed control at 140 g/ha [8]: 60 to 74%
- GR50 APESV [8, 10]: 67 g ai/ha
- GR80 APESV [8, 11]: >140 g ai/ha

SMILES: C#Cc1ccc(-c2nc(N)c(OC)c(C(=O)O)n2)c(F)c1F [Compound 154]
- pest or weed control at 35 g/ha ([1]; Table 9, post-emergent, 21 d): 0 to 29%
- pest or weed control at 70 g/ha ([1]; Table 9, post-emergent, 21 d): 0 to 29%
- pest or weed control at 140 g/ha ([1]; Table 9, post-emergent, 21 d): 45 to 59%
- GR20 HORSS [1, 14]: 81 g ai/ha
- pest or weed control at 35 g/ha ([2]; Table 9, post-emergent, 21 d): 0 to 29%
- pest or weed control at 70 g/ha ([2]; Table 9, post-emergent, 21 d): 0 to 29%
- pest or weed control at 140 g/ha ([2]; Table 9, post-emergent, 21 d): 0 to 29%
- GR50 KCHSC [2, 15]: 57 g ai/ha
- GR80 KCHSC [2, 16]: 93 g ai/ha
- pest or weed control at 35 g/ha ([3]; Table 9, post-emergent, 21 d): 0 to 29%
- pest or weed control at 70 g/ha ([3]; Table 9, post-emergent, 21 d): 0 to 29%
- pest or weed control at 140 g/ha ([3]; Table 9, post-emergent, 21 d): 0 to 29%
- GR20 TRZSS [4, 14]: 49 g ai/ha
- pest or weed control at 35 g/ha ([4]; Table 9, post-emergent, 21 d): 0 to 29%
- pest or weed control at 70 g/ha ([4]; Table 9, post-emergent, 21 d): 30 to 44%
- pest or weed control at 140 g/ha ([4]; Table 9, post-emergent, 21 d): 45 to 59%
- pest or weed control at 35 g/ha ([5]; Table 9, post-emergent, 21 d): 30 to 44%
- pest or weed control at 70 g/ha ([5]; Table 9, post-emergent, 21 d): 60 to 74%
- pest or weed control at 140 g/ha ([5]; Table 9, post-emergent, 21 d): 75 to 84%
- GR50 SETVI [5, 15]: 56 g ai/ha
- GR80 SETVI [5, 16]: 109 g ai/ha
- pest or weed control at 35 g/ha ([8]; Table 9, post-emergent, 21 d): 0 to 29%
- pest or weed control at 70 g/ha ([8]; Table 9, post-emergent, 21 d): 0 to 29%
- pest or weed control at 140 g/ha ([8]; Table 9, post-emergent, 21 d): 0 to 29%
- GR50 APESV [8, 15]: >140 g ai/ha
- GR80 APESV [8, 16]: >140 g ai/ha
